Laboratory results taken from patent US3965105A, “Phenyl-lower-alkylamines” (Sterling Drug Inc., priority 1975, dated 1976).

How the values were obtained:
[1] = inhibition of adjuvant-induced arthritis test, modified (adjuvant arthritis, AA); format: in vivo; conditions: oral, text: millimoles (μM)/kg.)
Method: (§1) Anti-inflammatory activity was determined using (1) the inhibition of carrageenin-induced foot edema test essentially described by […] and (2) a modification of the inhibition of adjuvant-induced arthritis test described by Pierson, J. Chronic Diseases 16, 863 (1963) and Glenn et al., Am. J. Vet. Res. 26, 1180 (1965).
(§2) The phenyl-lower-alkylamines of formula I of the invention have been tested in the carrageenin edema (CE) and adjuvant arthritis (AA) tests and found to have anti-inflammatory activity. Data so-obtained, stated in terms of percent inhibition at a dose expressed in terms of millimoles (μM)/kg.,are given below. All data were obtained on oral administration.

[2] = inhibition of carrageenin-induced foot edema test (carrageenin edema, CE); format: in vivo; conditions: oral, text: millimoles (μM)/kg.)
Method: as §1, §2

SMILES | AA (% Inhib.) ([1]; dose 0.324 (head: mmol/kg) | CE (% Inhib.) ([2]; dose 0.08 (head: mmol/kg) | CE (% Inhib.) ([2]; dose 0.324 (head: mmol/kg) | AA (% Inhib.) ([1]; dose 0.01 (head: mmol/kg) | AA (% Inhib.) ([1]; dose 0.04 (head: mmol/kg) | AA (% Inhib.) ([1]; dose 0.16 (head: mmol/kg) | CE (% Inhib.) ([2]; dose 0.02 (head: mmol/kg) | CE (% Inhib.) ([2]; dose 0.005 (head: mmol/kg)
CC(C)Cc1ccc(C(C)CN2CCCCC2CC2CCCCC2)cc1 (stereo not drawn) [Example 1, 2-cyclohexylmethyl-1-[2-(4-isobutylphenyl)propyl]piperidine] | 75% | 0% | 5% |  |  |  |  | 
CCN(CC)CCCC(C)NCC(C)c1ccc(CC(C)C)cc1 (stereo not drawn) [Example 2, N-[2-(4-isobutylphenyl)propyl]-N-[5-(N',N'-diethylamino)-2-pentyl]amine] |  | 17% | 39% | 32% | 34% | 63% | 0% | 
CC(C)Cc1ccc(C(C)CN2C(C)CCCC2C)cc1 (stereo not drawn) [Example 3, 2,6-dimethyl-1-[2-(4-isobutylphenyl)propyl]piperidine] | 55% | 0% | 8% |  |  |  |  | 
CC(CN1CCCCC1CC1CCCCC1)c1cccc(Br)c1 (stereo not drawn) [Example 4, 2-cyclohexylmethyl-1-[2-(3-bromophenyl)propyl]piperidine] |  | 0% |  |  |  |  | 4% | 7%
CC(CN1CCCCC1CC1CCCCC1)c1ccccc1 (stereo not drawn) [Example 5, 2-cyclohexylmethyl-1-(2-phenylpropyl)piperidine] |  | 13% |  |  |  |  | 16% | 0%
